Data on 3 compounds can be found in ChEMBL document CHEMBL2417358, “Design, stereoselective synthesis, and biological evaluation of novel tri-cyclic compounds as inhibitor of apoptosis proteins (IAP) antagonists” (Bioorg Med Chem, 2013).

Data set [1] relates to MDA-MB-231. The data set can be described thus: Growth inhibition of human MDA-MB-231 cells after 72 hrs by luminescence assay. It counts as functional. Conditions: MDA-MB-231, 72 h.
For data set [2], the system named is Mus musculus. The data set can be described thus: Upregulation of TNFalpha mRNA level in human MDA-MB-231 cells expressing luciferase xenografted in po dosed mouse after 6 hrs by RT-PCR analysis. Format: functional, organism-based. (In general: Xenograft models place foreign cells or tissue in a host animal.)
Data set [3] in a line: Metabolic stability in mouse liver microsomes assessed as compound remaining at 1 umol/L after 15 to 30 mins by LC/MS/MS analysis. It counts as ADME, Microsome. To be noted: read-out: Stability. (Microsomes from liver hold many membrane-bound enzymes, among them those of drug oxidation.)
Data set [4] is described as follows: Metabolic stability in human liver microsomes assessed as compound remaining at 1 umol/L after 15 to 30 mins by LC/MS/MS analysis. Format: ADME, Microsome. To be noted: read-out: Stability.

For the compound `CN[C@@H](C)C(=O)N[C@H](C(=O)N1C[C@H]2CCCN2C[C@H]1C(=O)N[C@@H]1CCOc2ccccc21)C1CCCCC1`, the GI50 (in general, the concentration that inhibits growth by half) in data set [1] stood at 5.7 nM.

For the compound `CN[C@@H](C)C(=O)N[C@H](C(=O)N1C[C@H]2C[C@@H]3C[C@@H]3N2C[C@H]1C(=O)N[C@@H]1CCOc2ccccc21)C1CCCCC1`, the Activity result in data set [2] was “Dose-dependent effect”. In addition, the microsomal CLint at 1 µM turned out to be 96 µL/min/mg in data set [3] and 72 µL/min/mg in data set [4]. Also, the GI50 in data set [1] worked out at 7.8 nM.

Regarding `CN[C@@H](C)C(=O)N[C@H](C(=O)N1C[C@H]2C[C@H]3C[C@H]3N2C[C@H]1C(=O)N[C@@H]1CCOc2ccccc21)C1CCCCC1`, the microsomal CLint at 1 µM in data set [3] is 45 µL/min/mg; in data set [4], 39 µL/min/mg. This compound also displayed a GI50 in data set [1] of 83 nM.
